Measured values as given in BigSolDB 2.1.

Cc1cc(O)c2c(c1)C(=O)c1cc(O)cc(O)c1C2=O
solubility (mole fraction)
Settings | 273.65 K | 278.35 K | 289.35 K | 298.15 K | 307.5 K | 313.25 K | 318.05 K | 323.05 K
in ethanol | 0.000485 | 0.000626 | 0.000777 | 0.000936 | 0.00116 | 0.00148 | 0.00168 | 0.00216
in n-octanol | 0.00221 | 0.00239 | 0.00266 | 0.00272 | 0.00299 | 0.00347 | 0.00404 | 0.00463
